# Laboratory results from patent US20220289724A1, “KIF18A INHIBITORS” (AMGEN INC., priority 2019, published 2022).
# pIC50: −log10 of the molar value.
# Biological target: T1, Recombinant human KIF18A (1-467 His-tagged) protein (Homo sapiens, UniProt Q8NI77)
# T1 construct: Recombinant human KIF18A (1-467 His-tagged) protein; His; made in house
# Assay: KIF18A Enzyme Assay: microtubule-stimulated ATPase activity assay (ADP-Glo)
# Format: biochemical
# Conditions: KIF18A protein 30 nM, 30 μg/mL pig microtubules, ATP at Km 75 μM, ADP-Glo luminescence, RT
# Source text: KIF18A Enzyme Assay: Microtubule-stimulated ATPase activity assay is used to measure KIF18A enzyme activity after treatment with compound. Compounds were 2-fold serially diluted in DMSO (Sigma Inc) over 22-point concentration range. Recombinant human KIF18A (1-467 His-tagged) protein was expressed using a baculovirus system and purified by affinity chromatography by Amgen Inc. Concentrations of KIF18A protein, microtubules (MT), and ATP in the reaction were optimized for standardized homogenous enzyme assay using ADP-Glorm Kinase/ATPase Assay Kit (Promega Inc). The assay measures ADP formed from the ATPase reaction. […] Concentration-response curve-fitting and IC50 determination was performed using Genedata Screener Software (Standard 15.0.1, Genedata Inc) with a four-parameter logistic regression fit model.
# Table A provides data for compounds exemplified in the present application and priority document thereof, as representative compounds of the present invention, as follows: chemical name (as named by either ACD software or ChemDraw (Professional 15.0)) and biological data (IC50 in μM). Ex. […] refers to Example No.
# T1 sequence (Q8NI77 1-467): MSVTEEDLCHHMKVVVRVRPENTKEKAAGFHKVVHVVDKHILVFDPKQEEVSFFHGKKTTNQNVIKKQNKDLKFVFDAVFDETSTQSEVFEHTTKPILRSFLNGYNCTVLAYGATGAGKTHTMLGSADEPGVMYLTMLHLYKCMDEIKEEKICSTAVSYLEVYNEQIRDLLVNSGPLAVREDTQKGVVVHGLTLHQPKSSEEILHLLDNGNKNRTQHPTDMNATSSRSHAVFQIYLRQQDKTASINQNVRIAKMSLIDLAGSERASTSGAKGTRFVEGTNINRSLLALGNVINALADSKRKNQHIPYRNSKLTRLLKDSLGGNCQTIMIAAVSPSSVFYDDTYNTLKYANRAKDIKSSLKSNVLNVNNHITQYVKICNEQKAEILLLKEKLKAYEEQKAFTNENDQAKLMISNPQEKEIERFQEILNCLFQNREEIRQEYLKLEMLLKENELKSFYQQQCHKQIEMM
# T1 sequence (P02550 whole entry partner): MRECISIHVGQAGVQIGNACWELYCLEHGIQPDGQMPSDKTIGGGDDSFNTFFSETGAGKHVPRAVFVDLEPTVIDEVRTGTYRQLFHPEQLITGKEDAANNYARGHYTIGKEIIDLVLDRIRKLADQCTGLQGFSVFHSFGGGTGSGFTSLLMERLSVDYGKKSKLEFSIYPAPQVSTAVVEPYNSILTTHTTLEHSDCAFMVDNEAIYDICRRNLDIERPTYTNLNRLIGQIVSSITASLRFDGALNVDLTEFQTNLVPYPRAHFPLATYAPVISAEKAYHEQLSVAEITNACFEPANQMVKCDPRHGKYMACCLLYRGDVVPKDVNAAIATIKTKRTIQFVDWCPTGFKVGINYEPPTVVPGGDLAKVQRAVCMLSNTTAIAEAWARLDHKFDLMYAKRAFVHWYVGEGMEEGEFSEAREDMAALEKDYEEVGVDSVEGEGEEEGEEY
# T1 sequence (P02554 whole entry partner): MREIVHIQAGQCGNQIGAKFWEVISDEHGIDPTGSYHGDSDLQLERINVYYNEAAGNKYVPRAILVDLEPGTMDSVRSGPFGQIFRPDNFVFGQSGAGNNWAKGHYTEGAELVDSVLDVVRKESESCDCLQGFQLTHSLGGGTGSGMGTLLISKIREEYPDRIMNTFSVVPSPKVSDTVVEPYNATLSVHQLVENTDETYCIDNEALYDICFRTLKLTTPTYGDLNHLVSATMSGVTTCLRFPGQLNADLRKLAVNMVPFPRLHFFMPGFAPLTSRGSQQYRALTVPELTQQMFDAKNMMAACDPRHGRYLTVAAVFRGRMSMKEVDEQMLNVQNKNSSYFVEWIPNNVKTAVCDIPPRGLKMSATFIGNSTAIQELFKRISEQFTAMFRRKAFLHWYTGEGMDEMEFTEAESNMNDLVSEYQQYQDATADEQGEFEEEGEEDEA
row,pIC50,Compound
1,7.12,"CC(C)(C)NS(=O)(=O)c1cccc(NC(=O)c2ccc(CS(=O)(=O)CCO)cc2N2CCC3(CC2)CC3)c1 [Example 100-12, N-(3-(N-(tert-butyl)sulfamoyl)phenyl)-4-(((2-hydroxyethyl)sulfonyl)methyl)-2-(6-azaspiro[2.5]octan-6-yl)benzamide]"
2,6.80,"N=[S@@](=O)(c1cccc(NC(=O)c2ccc(NS(=O)(=O)CCO)cc2N2CCC3(CC2)CC3)c1)N1CCC1 (single isomer, unassigned) [Example 112-2]"
